Some test systems named below: SK-MEL-28 melanoma; UO-31 renal; T-47D breast; OVCAR-4 ovarian; ACHN renal; KM12 colon; SN12C renal; SNB-75 CNS; SNB-19 CNS; RXF 393 renal.
What all share (test): inhibition of tumour cell growth, NCI panel, 48 h

Each structure is given as a SMILES string. “And” between values parts separate entries of the source, which are not always exact repeats. Equal values may be shown once.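 Where inhibition never reached the appropriate level, the endpoint shown equals the highest concentration tested. Otherwise, values were interpolated linearly from a five-concentration, 48-hour dose response in 96-well plates. GI50: concentration for 50% inhibition of growth. At the TGI there is no net growth.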

`Cc1ccc(S(=O)(=O)Cc2nc(-c3ccc(C(=O)NCc4cccnc4)cc3)oc2C)cc1`: the GI50 with SK-MEL-28 melanoma is 15.5 µM; in the test with UO-31 renal, 23.7 µM; in the test on T-47D breast, 0.287 µM; with OVCAR-4 ovarian, 2.64 µM; with ACHN renal, 7.06 µM; in the test with KM12 colon, 0.266 µM. Further, the GI50 is under 0.01 µM in the test on SN12C renal, 4.73 µM with SNB-75 CNS, 0.0869 µM in the test with SNB-19 CNS and 27.6 µM with RXF 393 renal. Besides, the TGI with SK-MEL-28 melanoma, with UO-31 renal, in the test with T-47D breast, with OVCAR-4 ovarian, with ACHN renal and with KM12 colon was over 100 µM each time. Besides, the TGI in the test with SN12C renal is over 100 µM; in the test on SNB-75 CNS it was 47.9 µM; in the test with SNB-19 CNS it was over 100 µM; in the test on RXF 393 renal it was over 100 µM.

As for `CS(=O)(=O)CCNCc1ccc(-c2ccc3ncnc(Nc4ccc(OCc5ccccc5)c(Cl)c4)c3c2)o1`, the GI50 with SK-MEL-28 melanoma is 3.85 µM; in the test with UO-31 renal, 1.64 µM; in the test with T-47D breast, 1.1 µM; with OVCAR-4 ovarian, 9.59 µM; with ACHN renal, 0.187 µM; in the test on KM12 colon, 6.41 µM. The GI50 in the test on SN12C renal is 11.9 µM; in the test on SNB-75 CNS it was 4.94 µM; with SNB-19 CNS, 10.4 µM; in the test with RXF 393 renal, 1.61 µM. In addition, the TGI was 7.49 µM with SK-MEL-28 melanoma; 7.38 µM in the test on UO-31 renal; 12.9 µM in the test with T-47D breast; over 25 µM in the test with OVCAR-4 ovarian; over 25 µM in the test with ACHN renal; 17.8 µM with KM12 colon. The TGI is over 25 µM in the test with SN12C renal, over 25 µM with SNB-75 CNS, over 25 µM in the test on SNB-19 CNS and 6.33 µM in the test on RXF 393 renal.

Consider `Cc1c(NC(=O)OC[C@@H]2COCCN2)cn2ncnc(Nc3ccc4c(cnn4Cc4cccc(F)c4)c3)c12`, for which the GI50 in the test with SK-MEL-28 melanoma is > 10 µM and 7.04 µM; with UO-31 renal, 1.25 µM and 1.55 µM; in the test on T-47D breast it was 1.36 µM and 1.14 µM; with OVCAR-4 ovarian, > 10 µM and 8.04 µM; in the test with ACHN renal it was 0.576 µM and 0.44 µM; in the test on KM12 colon, > 10 µM and 11.5 µM. For the same compound, the GI50 with SN12C renal was > 10 µM and 3.32 µM; in the test with SNB-75 CNS, 8 µM and 7.09 µM; in the test on SNB-19 CNS, > 10 µM and 9.04 µM; with RXF 393 renal, 2.89 µM and 4.15 µM. Besides, the TGI with SK-MEL-28 melanoma is > 10 µM and 21.4 µM; in the test on UO-31 renal it was > 10 µM and 16.5 µM; with T-47D breast, 9.52 µM and 10.3 µM; in the test with OVCAR-4 ovarian, > 10 µM and 27.3 µM; with ACHN renal, > 10 µM and 15.3 µM; with KM12 colon, > 10 µM and 25.5 µM. The TGI in the test with SN12C renal is > 10 µM and 20.4 µM; in the test on SNB-75 CNS, > 10 µM and 30.9 µM; with SNB-19 CNS, > 10 µM and 23.2 µM; in the test with RXF 393 renal, > 10 µM and 15.3 µM.

As to `CN(C[C@@H]1COCCO1)S(=O)(=O)Nc1ccc2ccc3ncc(-c4cnn(C)c4)cc3c(=O)c2c1`, the GI50 is over 66.8 µM in the test with SK-MEL-28 melanoma; 1.95 µM in the test with UO-31 renal; 5.54 µM with T-47D breast; 5.65 µM in the test on OVCAR-4 ovarian; 2.82 µM in the test on ACHN renal; 0.369 µM with KM12 colon. Further, the GI50 with SN12C renal was 3.53 µM; in the test on SNB-75 CNS it was 1.6 µM; in the test on SNB-19 CNS, 12.5 µM; in the test on RXF 393 renal it was 1.1 µM. Moreover, the TGI in the test on SK-MEL-28 melanoma, in the test on UO-31 renal, in the test on T-47D breast, in the test on OVCAR-4 ovarian, with ACHN renal and with KM12 colon was over 100 µM throughout. The TGI is over 100 µM in the test on SN12C renal, over 27.4 µM in the test on SNB-75 CNS, over 100 µM in the test with SNB-19 CNS and 6.71 µM in the test on RXF 393 renal.

As for `CCOC(=O)c1cc2c(n1Cc1ccccc1)-c1oncc1CC2`, the GI50 in the test on SK-MEL-28 melanoma was 52.4 µM; with UO-31 renal, 4.32 µM; in the test with T-47D breast, 4.66 µM; in the test on OVCAR-4 ovarian it was 7.69 µM; with ACHN renal, 5.84 µM; with KM12 colon it was 3.49 µM. Further, the GI50 in the test with SN12C renal is 10 µM; in the test on SNB-75 CNS, 4.68 µM; in the test with SNB-19 CNS, 7 µM; with RXF 393 renal, 6.88 µM. The TGI with SK-MEL-28 melanoma is over 100 µM; in the test with UO-31 renal, 40.5 µM; with T-47D breast, 32 µM; in the test with OVCAR-4 ovarian, over 100 µM; with ACHN renal, 89 µM; in the test on KM12 colon it was 27.6 µM. The TGI with SN12C renal was 55.8 µM; in the test on SNB-75 CNS, over 100 µM; in the test with SNB-19 CNS, over 100 µM; with RXF 393 renal, 30.9 µM.

Take `CCc1nc(N)nc(N)c1-c1ccc(NCCc2ccccc2)c([N+](=O)[O-])c1`: the TGI in the test on SK-MEL-28 melanoma is 28.2 µM; with UO-31 renal, over 51.4 µM; with T-47D breast, over 52.8 µM; in the test with OVCAR-4 ovarian it was 46.2 µM; with ACHN renal it was 37 µM; with KM12 colon, over 57 µM. For the same compound, the TGI with SN12C renal is over 71.3 µM; in the test on SNB-75 CNS, 47.3 µM; with SNB-19 CNS, over 63.1 µM; in the test on RXF 393 renal, 40.7 µM.

As for `O=C(c1ccccc1)c1nc2ccc(C(F)(F)F)cc2[n+]([O-])c1C(F)(F)F`, the GI50 in the test on SK-MEL-28 melanoma is 58.8 µM; in the test on UO-31 renal, 23.8 µM; with T-47D breast, 20.4 µM; in the test on OVCAR-4 ovarian it was 22.4 µM; in the test with ACHN renal it was 39.3 µM; in the test with KM12 colon it was 37.3 µM. The GI50 in the test with SN12C renal was 54 µM; in the test on SNB-75 CNS, 37.1 µM; in the test with SNB-19 CNS, 71.5 µM; with RXF 393 renal, 31.8 µM. Also, the TGI in the test on SK-MEL-28 melanoma, with UO-31 renal, in the test on T-47D breast, with OVCAR-4 ovarian, in the test with ACHN renal and with KM12 colon was over 100 µM in each case. For the same compound, the TGI in the test on SN12C renal, with SNB-75 CNS, in the test with SNB-19 CNS and with RXF 393 renal was over 100 µM in each case.

For `CCCCCCCCCCCCOC1C(CNC(=O)C2OC3OC(C)(C)OC3C2NC(=O)CN2CCCCCC2)OC2OC(C)(C)OC21` (stereo not given), the GI50 in the test with SK-MEL-28 melanoma is 1.72 µM; with UO-31 renal, 6.22 µM; with T-47D breast it was 7.78 µM; with OVCAR-4 ovarian it was 6.47 µM; in the test with ACHN renal, 10.7 µM; with KM12 colon, 5.44 µM. Moreover, the GI50 in the test on SN12C renal is 9.64 µM; in the test on SNB-75 CNS, 8.49 µM; in the test on SNB-19 CNS, 10.3 µM; in the test on RXF 393 renal it was 2.87 µM. Besides, the TGI came to 3.4 µM in the test with SK-MEL-28 melanoma; 18 µM in the test on UO-31 renal; 22.8 µM in the test on T-47D breast; 20 µM with OVCAR-4 ovarian; 25.3 µM with ACHN renal; 19.1 µM in the test on KM12 colon. The TGI in the test on SN12C renal worked out at 24.6 µM; in the test on SNB-75 CNS, 21.4 µM; with SNB-19 CNS, 23.8 µM; in the test on RXF 393 renal, 8.6 µM.

(Values after PubChem BioAssay (NCI).)
